Source: patent publication US20210045385A1, “PYRIDAZINONE-SUBSTITUTED KETOXIMES AS HERBICIDES” (FMC Corporation, priority 2018, published 2021)

Columns and labels:
Type in all cases: in vivo
[1] = test system: Italian ryegrass (Lolium multiflorum); assay: Test A postemergence, visual plant response rating; details: for Ryegrass, Italian plant response rating (0 to 100 scale): 500 g ai/ha, postemergence, 0 is no effect, 100 is complete control; for Ryegrass, Italian plant response rating: Postemergence, 125 g ai/ha, 0 to 100 scale (0 no effect, 100 complete control)
Description: (§1) Seeds of plant species selected from barnyardgrass (Echinochloa crus-galli), kochia (Kochia scoparia), ragweed (common ragweed, Ambrosia elatior), Italian ryegrass (Lolium multiflorum), foxtail, giant (giant foxtail, Setaria faberii), foxtail, green (green foxtail, Setaria viridis), and pigweed (Amaranthus retroflexus) were planted into a blend of loam soil and sand and treated preemergence with a directed soil spray using test chemicals formulated in a non-phytotoxic solvent mixture which included a surfactant.
(§2) At the same time, plants selected from these weed species and also wheat (Triticum aestivum), corn (Zea mays), blackgrass (Alopecurus myosuroides), and galium (catchweed bedstraw, Galium aparine) were planted in pots containing the same blend of loam soil and sand and treated with postemergence applications of test chemicals formulated in the same manner. Plants ranged in height from 2 to 10 cm and were in the one- to two-leaf stage for the postemergence treatment. Treated plants and untreated controls were maintained in a greenhouse for approximately 10 days, after which time all treated plants were compared to untreated controls and visually evaluated for injury. Plant response ratings, summarized in Table A, are based on a 0 to 100 scale where 0 is no effect and 100 is complete control. A dash (-) response means no test result.

[2] = test system: barnyardgrass (Echinochloa crus-galli); assay: Test A postemergence, visual plant response rating; details: for Barnyardgrass plant response rating (0 to 100 scale): 500 g ai/ha, postemergence, 0 is no effect, 100 is complete control; for Barnyardgrass plant response rating: Postemergence, 125 g ai/ha, 0 to 100 scale (0 no effect, 100 complete control)
Description: as §1, §2

[3] = test system: ragweed (common ragweed, Ambrosia elatior); assay: Test A postemergence, visual plant response rating; details: for Ragweed plant response rating (0 to 100 scale): 500 g ai/ha, postemergence, 0 is no effect, 100 is complete control; for Ragweed plant response rating: Postemergence, 125 g ai/ha, 0 to 100 scale (0 no effect, 100 complete control)
Description: as §1, §2

corn (Zea mays) = assay: Test A postemergence, visual plant response rating; details: for Corn plant response rating (0 to 100 scale): 500 g ai/ha, postemergence, 0 is no effect, 100 is complete control; for Corn plant response rating: Postemergence, 125 g ai/ha, 0 to 100 scale (0 no effect, 100 complete control)
Description: as §1, §2

kochia (Kochia scoparia) [4] = assay: Test A postemergence, visual plant response rating; details: for Kochia plant response rating (0 to 100 scale): 500 g ai/ha, postemergence, 0 is no effect, 100 is complete control; for Kochia plant response rating: Postemergence, 125 g ai/ha, 0 to 100 scale (0 no effect, 100 complete control)
Description: as §1, §2

[5] = test system: foxtail, giant (giant foxtail, Setaria faberii); assay: Test A postemergence, visual plant response rating; details: for Foxtail, Giant plant response rating (0 to 100 scale): 500 g ai/ha, postemergence, 0 is no effect, 100 is complete control; for Foxtail, Giant plant response rating: Postemergence, 125 g ai/ha, 0 to 100 scale (0 no effect, 100 complete control)
Description: as §1, §2

[6] = test system: pigweed (Amaranthus retroflexus); assay: Test A postemergence, visual plant response rating; details: for Pigweed plant response rating (0 to 100 scale): 500 g ai/ha, postemergence, 0 is no effect, 100 is complete control; for Pigweed plant response rating: Postemergence, 125 g ai/ha, 0 to 100 scale (0 no effect, 100 complete control)
Description: as §1, §2

[7] = test system: blackgrass (Alopecurus myosuroides); assay: Test A postemergence, visual plant response rating; details: for Blackgrass plant response rating (0 to 100 scale): 500 g ai/ha, postemergence, 0 is no effect, 100 is complete control; for Blackgrass plant response rating: Postemergence, 125 g ai/ha, 0 to 100 scale (0 no effect, 100 complete control)
Description: as §1, §2

[8] = test system: wheat (Triticum aestivum); assay: Test A postemergence, visual plant response rating; details: for Wheat plant response rating (0 to 100 scale): 500 g ai/ha, postemergence, 0 is no effect, 100 is complete control; for Wheat plant response rating: Postemergence, 125 g ai/ha, 0 to 100 scale (0 no effect, 100 complete control)
Description: as §1, §2

[9] = test system: galium (catchweed bedstraw, Galium aparine); assay: Test A postemergence, visual plant response rating; details: for Galium plant response rating (0 to 100 scale): 500 g ai/ha, postemergence, 0 is no effect, 100 is complete control; for Galium plant response rating: Postemergence, 125 g ai/ha, 0 to 100 scale (0 no effect, 100 complete control)
Description: as §1, §2

[10] = test system: barnyardgrass (Echinochloa crus-galli); assay: Test B flooded paddy test, visual plant response rating; details: 250 g ai/ha, Flood, applied to paddy water, 2-leaf stage, evaluated after 13 to 15 days
Outline: (§3)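 Flooded-pot treatment: water 3 cm over the soil, chemical delivered into that water, depth unchanged for the duration. Assessed by eye versus controls following 13–15 greenhouse days; plants were at 2 leaves when dosed.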

rice (Oryza sativa) = assay: as above; details: 250 g ai/ha, Flood, applied to paddy water, 2-leaf stage, evaluated after 13 to 15 days
Outline: as §3

[11] = test system: sedge, umbrella (small-flower umbrella sedge, Cyperus difformis); assay: as above; details: 250 g ai/ha, Flood, applied to paddy water, 2-leaf stage, evaluated after 13 to 15 days
Outline: as §3

[12] = test system: ducksalad (Heteranhera limosa); assay: as above; details: 250 g ai/ha, Flood, applied to paddy water, 2-leaf stage, evaluated after 13 to 15 days
Outline: as §3

[13] = test system: Italian ryegrass (Lolium multiflorum); assay: Test A preemergence, visual plant response rating; details: for Ryegrass, Italian plant response rating: 125 g ai/ha, preemergence, 0 to 100 scale, 0 no effect, 100 complete control; for Ryegrass, Italian plant response rating (0 to 100 scale): 500 g ai/ha Preemergence, approx. 10 days
Outline: (§4)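 Greenhouse evaluation, approx. 10 days post-spray. Soil: loam + sand. Postemergence stage: 1–2 leaves, height 2–10 cm. Vehicle: non-phytotoxic solvent blend with surfactant. Score: visual injury on a 0 (no effect) to 100 (complete control) scale.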

[14] = test system: barnyardgrass (Echinochloa crus-galli); assay: Test A preemergence, visual plant response rating; details: for Barnyardgrass plant response rating: 125 g ai/ha, preemergence, 0 to 100 scale, 0 no effect, 100 complete control; for Barnyardgrass plant response rating (0 to 100 scale): 500 g ai/ha Preemergence, approx. 10 days
Outline: as §4

[15] = test system: ragweed (common ragweed, Ambrosia elatior); assay: Test A preemergence, visual plant response rating; details: for Ragweed plant response rating (0 to 100 scale): 500 g ai/ha Preemergence, approx. 10 days
Outline: as §4

kochia (Kochia scoparia) [16] = assay: Test A preemergence, visual plant response rating; details: for Kochia plant response rating: 125 g ai/ha, preemergence, 0 to 100 scale, 0 no effect, 100 complete control; for Kochia plant response rating (0 to 100 scale): 500 g ai/ha Preemergence, approx. 10 days
Outline: as §4

[17] = test system: foxtail, giant (giant foxtail, Setaria faberii); assay: Test A preemergence, visual plant response rating; details: for Foxtail, Giant plant response rating: 125 g ai/ha, preemergence, 0 to 100 scale, 0 no effect, 100 complete control; for Foxtail, Giant plant response rating (0 to 100 scale): 500 g ai/ha Preemergence, approx. 10 days
Outline: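 Greenhouse pot test in loam–sand soil mix: compound in a surfactant-containing non-phytotoxic solvent applied preemergence (directed soil spray) or postemergence (one- to two-leaf plants, 2–10 cm). Injury scored visually after ~10 days, 0–100.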

[18] = test system: pigweed (Amaranthus retroflexus); assay: Test A preemergence, visual plant response rating; details: for Pigweed plant response rating: 125 g ai/ha, preemergence, 0 to 100 scale, 0 no effect, 100 complete control; for Pigweed plant response rating (0 to 100 scale): 500 g ai/ha Preemergence, approx. 10 days
Outline: as §4

| SMILES | Ryegrass, Italian plant response rating (0 to 100 scale) [1] | Ryegrass, Italian plant response rating [1] | Barnyardgrass plant response rating (0 to 100 scale) [2] | Barnyardgrass plant response rating [2] | Ragweed plant response rating (0 to 100 scale) [3] | Ragweed plant response rating [3] | Corn plant response rating (0 to 100 scale) (corn (Zea mays)) | Corn plant response rating (corn (Zea mays)) | Kochia plant response rating (0 to 100 scale) (kochia (Kochia scoparia) [4]) | Kochia plant response rating (kochia (Kochia scoparia) [4]) | Foxtail, Giant plant response rating (0 to 100 scale) [5] | Foxtail, Giant plant response rating [5] | Pigweed plant response rating (0 to 100 scale) [6] | Pigweed plant response rating [6] | Blackgrass plant response rating (0 to 100 scale) [7] | Blackgrass plant response rating [7] | Wheat plant response rating (0 to 100 scale) [8] | Wheat plant response rating [8] | Galium plant response rating (0 to 100 scale) [9] | Galium plant response rating [9] | further results |
| --- | --- | --- | --- | --- | --- | --- | --- | --- | --- | --- | --- | --- | --- | --- | --- | --- | --- | --- | --- | --- | --- |
| Cc1ccc(Cl)cc1/C(=N\O)c1c(O)c(C)nn(C)c1=O [Compound 35] | 20 | 0 | 0 | 0 | 20 | 10 | 0 | 0 | 10 | 0 | 0 | 0 | 20 | 10 | 20 | 0 | 0 | 0 | 70 | 20 | Plant response rating, Barnyardgrass (0 to 100 scale, 0 is no effect, 100 is complete control) [10]: 0; Plant response rating, Rice (0 to 100 scale, 0 is no effect, 100 is complete control) (rice (Oryza sativa)): 0; Plant response rating, Sedge, Umbrella (0 to 100 scale, 0 is no effect, 100 is complete control) [11]: 0; Plant response rating, Ducksalad (0 to 100 scale, 0 is no effect, 100 is complete control) [12]: 0; Ryegrass, Italian plant response rating [13]: 0; Ryegrass, Italian plant response rating (0 to 100 scale) [13]: 10; Barnyardgrass plant response rating [14]: 0; Barnyardgrass plant response rating (0 to 100 scale) [14]: 0; Ragweed plant response rating ([15]; 125 g ai/ha, preemergence, 0 to 100 scale, 0 no effect, 100 complete control): 0; Ragweed plant response rating (0 to 100 scale) [15]: 10; Kochia plant response rating (kochia (Kochia scoparia) [16]): 0; Kochia plant response rating (0 to 100 scale) (kochia (Kochia scoparia) [16]): 0; Foxtail, Giant plant response rating [17]: 0; Foxtail, Giant plant response rating (0 to 100 scale) [17]: 0; Pigweed plant response rating [18]: 0; Pigweed plant response rating (0 to 100 scale) [18]: 0 |
| CON=C(c1cccc(C(F)(F)F)c1Cl)c1c(O)c(C)nn(C)c1=O [Compound 103] | 50 | 0 | 30 | 20 | 20 | 10 | 0 | 0 | 20 | 0 | 30 | 0 | 30 | 10 | 40 | 20 | 0 | 0 | 70 | 40 | Plant response rating, Barnyardgrass (0 to 100 scale, 0 is no effect, 100 is complete control) [10]: 0; Plant response rating, Rice (0 to 100 scale, 0 is no effect, 100 is complete control) (rice (Oryza sativa)): 0; Plant response rating, Sedge, Umbrella (0 to 100 scale, 0 is no effect, 100 is complete control) [11]: 0; Plant response rating, Ducksalad (0 to 100 scale, 0 is no effect, 100 is complete control) [12]: 0; Ryegrass, Italian plant response rating [13]: 30; Ryegrass, Italian plant response rating (0 to 100 scale) [13]: 70; Barnyardgrass plant response rating [14]: 0; Barnyardgrass plant response rating (0 to 100 scale) [14]: 40; Ragweed plant response rating (0 to 100 scale) [15]: 50; Kochia plant response rating (kochia (Kochia scoparia) [16]): 0; Kochia plant response rating (0 to 100 scale) (kochia (Kochia scoparia) [16]): 0; Foxtail, Giant plant response rating [17]: 0; Foxtail, Giant plant response rating (0 to 100 scale) [17]: 20; Pigweed plant response rating [18]: 0; Pigweed plant response rating (0 to 100 scale) [18]: 50 |
